# Patent US10570184B2, “GLP-1/glucagon receptor co-agonists for medical use” (Novo Nordisk A/S, priority 2014, dated 2020)
# Starred links: 1 amine or outer side, 2 acyl side, 3 side chain; linkers in the order of their positions; H or OH if unused. Non-standard residues stand in square brackets, D forms with d. Residues, ends and D or L forms follow the SMILES beside them. Groups on a side chain read outwards from the residue. *: point of attachment. C18 diacid = O=C(O)CCCCCCCCCCCCCCCCC(=O)*; γGlu = O=C(O)[C@H](CCC(=O)[*:2])N[*:1]; Ac4c = NC1(C(=O)O)CCC1; AEEA = NCCOCCOCC(=O)O; Aib = CC(C)(N)C(=O)O
# Test: Assay (III) ThT fibrillation assay for physical stability
# Format: physicochemical
# Settings: 250 μM in 10 mM HEPES buffer, 37° C., shaking 960 rpm
# Summary of the method: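 Glucagon derivative at 250 μM in 10 mM HEPES pH 7.5 with 1 μM ThT was incubated at 37 °C under 960 rpm orbital shaking. Fluorescence (ex 444/em 485 nm) was read every 20 min and fitted for lag time (t0−2τ) and kapp (1/τ). Recovery was soluble peptide after centrifugation/filtration, by RP-HPLC, as percent of initial.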
row,"ThT Assay Lag time (h) [Assay (III), pH 7.5]",SMILES
1,23.0 h,"CC[C@H](C)[C@H](NC(=O)[C@H](CC(C)C)NC(=O)[C@H](Cc1c[nH]c2ccccc12)NC(=O)[C@H](CCC(N)=O)NC(=O)[C@@H](NC(=O)[C@H](Cc1ccccc1)NC(=O)[C@H](CCC(=O)O)NC(=O)[C@H](CCCNC(=N)N)NC(=O)[C@H](C)NC(=O)[C@H](CCCNC(=N)N)NC(=O)[C@H](CCCNC(=N)N)NC(=O)[C@H](CO)NC(=O)[C@H](CCC(=O)O)NC(=O)[C@H](CC(C)C)NC(=O)[C@H](Cc1ccc(O)cc1)NC(=O)[C@H](CCCCN)NC(=O)[C@H](CO)NC(=O)[C@H](CC(C)C)NC(=O)[C@H](CC(=O)O)NC(=O)[C@H](CO)NC(=O)[C@@H](NC(=O)[C@H](Cc1ccccc1)NC(=O)[C@@H](NC(=O)CNC(=O)[C@H](CCC(N)=O)NC(=O)C(C)(C)NC(=O)[C@@H](N)Cc1c[nH]cn1)[C@@H](C)O)[C@@H](C)O)C(C)C)C(=O)N[C@@H](CCCCNC(=O)CC[C@H](NC(=O)CC[C@H](NC(=O)COCCOCCNC(=O)COCCOCCNC(=O)CC[C@H](NC(=O)CC[C@H](NC(=O)CCCCCCCCCCCCCCCCC(=O)O)C(=O)O)C(=O)O)C(=O)O)C(=O)O)C(=O)N[C@H](C(N)=O)[C@@H](C)O [Chem. 25, N^ε28-[(4S)-4-carboxy-4-[[(4S)-4-carboxy-4-[[2-[2-[2-[[2-[2-[2-[[(4S)-4-carboxy-4-[[(4S)-4-carboxy-4-(17-carboxyheptadecanoylamino)butanoyl]amino]butanoyl]amino]ethoxy]ethoxy]acetyl]amino]ethoxy]ethoxy]acetyl]amino]butanoyl]amino]butanoyl]-[Aib2,Leu10,Glu15,Arg20,Glu21,Ile27,Lys28]-Glucagon amide] (H-H[Aib]QGTFTSDLSKYLESRRAREFVQWLIK([γGlu-γGlu-AEEA-AEEA-γGlu-γGlu-C18 diacid])T-NH2; N-terminus assumed)"
2,45.0 h,"CC[C@H](C)[C@H](NC(=O)[C@H](CC(=O)O)NC(=O)[C@H](CO)NC(=O)[C@@H](NC(=O)[C@H](Cc1ccccc1)NC(=O)[C@@H](NC(=O)CNC(=O)[C@H](CCC(N)=O)NC(=O)C1(NC(=O)[C@@H](N)Cc2c[nH]cn2)CCC1)[C@@H](C)O)[C@@H](C)O)C(=O)N[C@@H](CO)C(=O)N[C@@H](CCCCN)C(=O)N[C@@H](Cc1ccc(O)cc1)C(=O)N[C@@H](CC(C)C)C(=O)N[C@@H](CCC(=O)O)C(=O)N[C@@H](CO)C(=O)N[C@@H](CCCNC(=N)N)C(=O)N[C@@H](CCCNC(=N)N)C(=O)N[C@@H](C)C(=O)N[C@@H](CCCNC(=N)N)C(=O)N[C@@H](CCC(=O)O)C(=O)N[C@@H](Cc1ccccc1)C(=O)N[C@H](C(=O)N[C@@H](CCC(N)=O)C(=O)N[C@@H](Cc1c[nH]c2ccccc12)C(=O)N[C@@H](CC(C)C)C(=O)N[C@H](C(=O)N[C@@H](CCCCNC(=O)CC[C@H](NC(=O)CC[C@H](NC(=O)COCCOCCNC(=O)COCCOCCNC(=O)CC[C@H](NC(=O)CC[C@H](NC(=O)CCCCCCCCCCCCCCCCC(=O)O)C(=O)O)C(=O)O)C(=O)O)C(=O)O)C(=O)N[C@H](C(N)=O)[C@@H](C)O)[C@@H](C)CC)C(C)C [Chem. 26, N^ε28-[(4S)-4-carboxy-4-[[(4S)-4-carboxy-4-[[2-[2-[2-[[2-[2-[2-[[(4S)-4-carboxy-4-[[(4S)-4-carboxy-4-(17-carboxyheptadecanoylamino)butanoyl]amino]butanoyl]amino]ethoxy]ethoxy]acetyl]amino]ethoxy]ethoxy]acetyl]amino]butanoyl]amino]butanoyl]-[Acb2,Ile10,Glu15,Arg20,Glu21,Ile27,Lys28]-Glucagon amide] (H-H[Ac4c]QGTFTSDISKYLESRRAREFVQWLIK([γGlu-γGlu-AEEA-AEEA-γGlu-γGlu-C18 diacid])T-NH2; N-terminus assumed)"
3,45.0 h,"CC[C@H](C)[C@H](NC(=O)[C@H](CC(C)C)NC(=O)[C@H](Cc1c[nH]c2ccccc12)NC(=O)[C@H](CCC(N)=O)NC(=O)[C@@H](NC(=O)[C@H](Cc1ccccc1)NC(=O)[C@H](CCC(=O)O)NC(=O)[C@H](CCCNC(=N)N)NC(=O)[C@H](C)NC(=O)[C@H](CCCNC(=N)N)NC(=O)[C@H](CCCNC(=N)N)NC(=O)[C@H](C)NC(=O)[C@H](CC(=O)O)NC(=O)[C@H](CC(C)C)NC(=O)[C@H](Cc1ccc(O)cc1)NC(=O)[C@H](CCCCN)NC(=O)[C@H](CO)NC(=O)[C@H](CC(C)C)NC(=O)[C@H](CC(=O)O)NC(=O)[C@H](CO)NC(=O)[C@@H](NC(=O)[C@H](Cc1ccccc1)NC(=O)[C@@H](NC(=O)CNC(=O)[C@H](CCC(N)=O)NC(=O)C(C)(C)NC(=O)[C@@H](N)Cc1c[nH]cn1)[C@@H](C)O)[C@@H](C)O)C(C)C)C(=O)N[C@@H](CC(N)=O)C(=O)N[C@@H](CCCCNC(=O)CC[C@H](NC(=O)CC[C@H](NC(=O)COCCOCCNC(=O)COCCOCCNC(=O)CC[C@H](NC(=O)CCCCCCCCCCCCCCCCC(=O)O)C(=O)O)C(=O)O)C(=O)O)C(N)=O [Chem. 21, N^ε29-[(4S)-4-carboxy-4-[[(4S)-4-carboxy-4-[[2-[2-[2-[[2-[2-[2-[[(4S)-4-carboxy-4-(17-carboxyheptadecanoylamino)butanoyl]amino]ethoxy]ethoxy]acetyl]amino]ethoxy]ethoxy]acetyl]amino]butanoyl]amino]butanoyl]-[Aib2,Leu10,Ala16,Arg20,Glu21,Ile27,Lys29]-Glucagon amide] (H-H[Aib]QGTFTSDLSKYLDARRAREFVQWLINK([γGlu-γGlu-AEEA-AEEA-γGlu-C18 diacid])-NH2; N-terminus assumed)"
4,3.7 h,"CC[C@H](C)[C@H](NC(=O)[C@H](CC(C)C)NC(=O)[C@H](Cc1c[nH]c2ccccc12)NC(=O)[C@H](CCC(N)=O)NC(=O)[C@@H](NC(=O)[C@H](Cc1ccccc1)NC(=O)[C@H](CC(=O)O)NC(=O)[C@H](CCCNC(=N)N)NC(=O)[C@H](C)NC(=O)[C@H](CCCNC(=N)N)NC(=O)[C@H](CCCNC(=N)N)NC(=O)[C@H](CO)NC(=O)[C@H](CCC(=O)O)NC(=O)[C@H](CC(C)C)NC(=O)[C@H](Cc1ccc(O)cc1)NC(=O)[C@H](CCCNC(=N)N)NC(=O)[C@H](CO)NC(=O)[C@H](Cc1ccc(O)cc1)NC(=O)[C@H](CC(=O)O)NC(=O)[C@H](CO)NC(=O)[C@@H](NC(=O)[C@H](Cc1ccccc1)NC(=O)[C@@H](NC(=O)CNC(=O)[C@H](CCC(N)=O)NC(=O)C1(NC(=O)[C@@H](N)Cc2c[nH]cn2)CCC1)[C@@H](C)O)[C@@H](C)O)C(C)C)C(=O)N[C@@H](CCCCNC(=O)CC[C@H](NC(=O)COCCOCCNC(=O)CC[C@H](NC(=O)COCCOCCNC(=O)CC[C@H](NC(=O)COCCOCCNC(=O)CC[C@H](NC(=O)CC[C@H](NC(=O)CCCCCCCCCCCCCCCCC(=O)O)C(=O)O)C(=O)O)C(=O)O)C(=O)O)C(=O)O)C(=O)N[C@H](C(N)=O)[C@@H](C)O [Chem. 36, N^ε28-[(4S)-4-carboxy-4-[[2-[2-[2-[[(4S)-4-carboxy-4-[[2-[2-[2-[[(4S)-4-carboxy-4-[[2-[2-[2-[[(4S)-4-carboxy-4-[[(4S)-4-carboxy-4-(17-carboxyheptadecanoylamino)butanoyl]amino]butanoyl]amino]ethoxy]ethoxy]acetyl]amino]butanoyl]amino]ethoxy]ethoxy]acetyl]amino]butanoyl]amino]ethoxy]ethoxy]acetyl]amino]butanoyl]-[Acb2,Arg12,Glu15,Arg20,Ile27,Lys28]-Glucagon amide] (H-H[Ac4c]QGTFTSDYSRYLESRRARDFVQWLIK([γGlu-AEEA-γGlu-AEEA-γGlu-AEEA-γGlu-γGlu-C18 diacid])T-NH2; N-terminus assumed)"
5,45.0 h,"CC[C@H](C)[C@H](NC(=O)[C@H](CC(C)C)NC(=O)[C@H](Cc1c[nH]c2ccccc12)NC(=O)[C@H](CCC(N)=O)NC(=O)[C@@H](NC(=O)[C@H](Cc1ccccc1)NC(=O)[C@H](CC(=O)O)NC(=O)[C@H](CCCNC(=N)N)NC(=O)[C@H](C)NC(=O)[C@H](CCCNC(=N)N)NC(=O)[C@H](CCCNC(=N)N)NC(=O)[C@H](C)NC(=O)[C@H](CC(=O)O)NC(=O)[C@H](CC(C)C)NC(=O)[C@H](Cc1ccc(O)cc1)NC(=O)[C@H](CCCCN)NC(=O)[C@H](CO)NC(=O)[C@H](CC(C)C)NC(=O)[C@H](CC(=O)O)NC(=O)[C@H](CO)NC(=O)[C@@H](NC(=O)[C@H](Cc1ccccc1)NC(=O)[C@@H](NC(=O)CNC(=O)[C@H](CCC(N)=O)NC(=O)C(C)(C)NC(=O)[C@@H](N)Cc1c[nH]cn1)[C@@H](C)O)[C@@H](C)O)C(C)C)C(=O)N[C@@H](CC(N)=O)C(=O)N[C@@H](CCCCNC(=O)CC[C@H](NC(=O)CC[C@H](NC(=O)COCCOCCNC(=O)COCCOCCNC(=O)CC[C@H](NC(=O)CCCCCCCCCCCCCCCCC(=O)O)C(=O)O)C(=O)O)C(=O)O)C(N)=O [Chem. 20, N^ε29-[(4S)-4-carboxy-4-[[(4S)-4-carboxy-4-[[2-[2-[2-[[2-[2-[2-[[(4S)-4-carboxy-4-(17-carboxyheptadecanoylamino)butanoyl]amino]ethoxy]ethoxy]acetyl]amino]ethoxy]ethoxy]acetyl]amino]butanoyl]amino]butanoyl]-[Aib2,Leu10,Ala16,Arg20,Ile27,Lys29]-Glucagon amide] (H-H[Aib]QGTFTSDLSKYLDARRARDFVQWLINK([γGlu-γGlu-AEEA-AEEA-γGlu-C18 diacid])-NH2; N-terminus assumed)"
